Laboratory results from US20130303500A1, “COMPOUNDS AND METHODS FOR TREATING NEOPLASIA” (Medexis S.A., priority 2010, published 2013).

Columns and labels:
A549 (Lung) cells = assay: Sulforhodamine B (SRB) assay, A549; type: cell-based; conditions: Homo sapiens
Description: (§1) Sulforhodamine B (SRB) assays were performed according to standard National Cancer Institute Guidelines. Briefly, human tumor cells from different cancer panels were seeded into 96 well plates in […] (plating densities ranging from 5-40,000 cells/well depending on the doubling time of individual cell lines) in serum-containing media for twenty-four hours prior to the addition of the compounds to be assayed. After 24 hours, one plate of each cell line was fixed in situ with trichloroacetic acid (TCA). The fixed slides were used to determine the cell population for each cell line at the time of drug addition (Tz). Each compound to be tested was solubilized in dimethyl sulfoxide (DMSO) and the desired concentration was then added to the medium and diluted serially 1:10 to provide a total of five or ten drug concentrations plus control (in a final volume of 200 μL). The starting dose before any dilution was 100 uM for all compounds.
(§2) Following drug addition, each culture was incubated for forty-eight hours. The assay was terminated with the addition of cold TCA. The supernatant was discarded, and the plates were washed with tap water and air dried. SRB solution was then added to each well. After staining, the bound stain was solubilized and the absorbance was read on an automated plate reader at a wavelength of 515 nm.
(§3) Using the absorbance measurements [time zero, (Tz), control growth, (C), and test growth in the presence of drug at the ten concentration levels (Ti)], the percentage growth was calculated at each of the drug concentrations levels. Percentage growth inhibition was calculated as:
(§4) [(Ti−Tz)/(C−Tz)]×100 for concentrations for which Ti>/=Tz
(§5) [(Ti−Tz)/Tz]×100 for concentrations for which Ti<Tz.
(§6) Three dose response parameters were calculated for each experimental agent. Growth inhibition of 50% (GI50) was calculated from [(Ti−Tz)/(C−Tz)]×100=50, which was the drug concentration resulting in a 50% reduction in the net protein increase (as measured by SRB staining) in control cells during the drug. The drug concentration resulting in total growth inhibition (TGI) was calculated from Ti=Tz. The LC50 (concentration of drug resulting in a 50% reduction in the measured protein at the end of the drug treatment as compared to that at the beginning) indicating a net loss of cells following treatment was calculated from [(Ti−Tz)/Tz]×100=−50.
(§7) Values were calculated for each of these three parameters when the level of activity was reached; however, if the effect was not reached or was exceeded, the value for that parameter was expressed as greater or less than the maximum or minimum concentration tested.

[1] = biological target: Na+/K+-ATPase (Adenosine 5′-Triphosphatase isolated from porcine cerebral cortex); assay: Na+/K+-ATPase inhibitory activity, colorimetric Adenosine 5′-Triphosphatase Enzymatic Assay (Sigma); type: biochemical; conditions: enzyme from porcine cerebral cortex, 0.5 units/ml
Description: The compound inhibitory effect on ATPase activity was assessed in vitro using the colorimetric Adenosine 5′-Triphosphatase Enzymatic Assay of Sigma (St. Louis, Mo.) according to the manufacturer's instructions. This assay utilizes Adenosine 5′-Triphosphatase isolated from porcine cerebral cortex. Each reaction was performed in a final volume of […] using 0.5 units/ml enzyme in the presence of the different inhibitors. […] IC50 values were determined using the Origin® program software (OriginLab, Northampton, Mass.).

DU145 (Prostate) cells = assay: MTT cell proliferation/viability assay, DU145; type: cell-based; conditions: Homo sapiens, DU-145, 72 h
Description: (§8) Cell proliferation/viability was assessed by the MTT [3-(4,5-dimethylthiazol-2-yl)-2,5-diphenyltetrazolium bromide] assay, which is commercially available (Sigma, St. Louis, Mo.). Cells were cultured in 96-well plates for twenty-four hours (7-10.000 cells/well) and incubated with various concentrations of the different compounds—as indicated in the Figures—in serum-containing medium (or left untreated) for seventy-two hours. At the end of incubation, the medium was aspirated and MTT dissolved in RPMI 1640 w/o phenol red was added to each well to a final concentration of 0.25 mg/ml. After four hours incubation in the dark (37° C., 5% CO2) the supernatant was discarded. The converted dye (blue formazan crystals) was solubilized by adding 200 μl dimethylsulfoxide to each well. Absorbance was measured at 550 nm with reference at 655 nm using a spectrophotometer with the respective filters. All assays were performed in triplicate.
(§9) The effect of the different compounds on the proliferation and viability of two cancer cell lines (DU145/prostate and CAKI/renal) was tested through quantitative (4,5-dimethylthiazol-2-yl)-2,5-diphenyltetrazolium bromide (MTT) assays.

PC3 (Prostate) cells = assay: Sulforhodamine B (SRB) assay, PC3; type: cell-based; conditions: Homo sapiens, Prostate cell, 48 h
Description: as §1, §2, §3, §4, §5, §6, §7

CAKI (Renal) cells = assay: MTT cell proliferation/viability assay, CAKI; type: cell-based; conditions: 72 h
Description: as §8, §9

H460 (Lung) cells = assay: Sulforhodamine B (SRB) assay, H460; type: cell-based, human
Description: as §1, §2, §3, §4, §5, §6, §7

[2] = system: membrane androgen receptor; assay: Membrane androgen receptor competition assay with testosterone-HSA-FITC in DU145 cells; type: binding; set-up: membrane fluorescence (binding of TAC-FITC to the membrane androgen receptor): dose or concentration left out as unconfirmed
Description: The detection of membrane androgen receptors using fluorescent testosterone-serum albumin conjugates was performed as described by Kampa, M et al., 2002, Faseb J 16:1429-1431, with minor modifications. The assay was used to measure the ability of a given compound to preclude binding of a fluorescent mAR ligand (testosterone-HSA-FITC conjugates) to its receptor in DU145 cells; this compound-induced effect is indicative of direct mAR binding (see Kampa et al and PCT/US2007/007913). […] Coverslips were mounted on slides by using the Slow Fade/Antifade Reagent (Molecular Probes) and studied under a LEICA DMLB microscope, equipped with the appropriate fluorescence filters and a Leica DC 300F camera. Specimens were analyzed using the Leica FW4000 computer program.
Membrane androgen receptor competition assays were performed to determine the capacity of a given compound to preclude binding of fluorescent testosterone-HSA conjugates (TAC) to the membrane androgen receptor. […] Specimens were prepared and analyzed as described above. Compounds binding to the membrane androgen receptor preclude binding of fluorescent testosterone-HSA conjugates to their target and abolish membrane-specific fluorescence.

Question: Which CC50 (A549 (Lung) cells; A549, 48 h, read-out: LC50) does the source give for `C[C@]12CCC(=NOC3CCNC3)CC1CCC1C2CC[C@]2(C)C(=O)C(F)CC12` (stereo partly drawn) [Compound 2, (5S,10S,13S,16R)-16a-fluoro-10,13-dimethyl-3-((S)-pyrrolidin-3-yloxyimino)-tetradecahydro-2H-cyclopenta[a]phenanthren-17(14H)-one] here?
Answer: The CC50 was 599 nM.

Question: And the GI50 (A549 (Lung) cells; A549 Lung, SRB, 48 h)?
Answer: The GI50 was 9 nM.

Question: And the IC (TGI) (A549 (Lung) cells; A549 Lung, SRB, 48 h)?
Answer: The IC (TGI) was 73 nM.

Question: What about the IC50 [1] of the same compound?
Answer: Its IC50 is 73 nM.

Question: And the IC50 (DU145 (Prostate) cells)?
Answer: Its IC50 is 250 nM.

Question: And the CC50 (PC3 (Prostate) cells; read-out: LC50)?
Answer: The CC50 was 962 nM.

Question: What about the GI50 (PC3 (Prostate) cells; PC3 Prostate, SRB) of the same compound?
Answer: Its GI50 is 46 nM.

Question: And the IC (TGI) (PC3 (Prostate) cells; PC3 Prostate, SRB)?
Answer: Its IC (TGI) is 414 nM.

Question: And the IC50 (CAKI (Renal) cells)?
Answer: Its IC50 is 8750 nM.

Question: What about the TGI (H460 (Lung) cells; H460 Lung, SRB, 48 h) of the same compound?
Answer: The TGI was 7 nM.

Question: And the CC50 (H460 (Lung) cells; Homo sapiens, NCI-H460, 48 h, read-out: LC50)?
Answer: The CC50 was 54 nM.

Question: And the GI50 (H460 (Lung) cells; Homo sapiens, NCI-H460, H460 Lung, SRB, 48 h)?
Answer: The GI50 was under 1 nM.

Question: And the “binding to the membrane androgen receptor (conclusion)” value ([2]; DU145 cells)?
Answer: The value was “capable of binding to the membrane androgen receptor”.

Question: What about the “membrane fluorescence (binding of TAC-FITC to the membrane androgen receptor)” value ([2]; DU145 cells pre-treated with compound for 30 minutes, then testosterone-HSA-FITC) of the same compound?
Answer: Its value is “largely reduced”.
